The values below come from ChEMBL document CHEMBL5331114, “Discovery of Pyxinol Amide Derivatives Bearing Amino Acid Residues as Nonsubstrate Allosteric Inhibitors of P-Glycoprotein-Mediated Multidrug Resistance” (J Med Chem, 2023).

For data set [1], the target named is T1, ATP-dependent translocase ABCB1 (Homo sapiens, UniProt P08183). The data set is described as follows: Negative allosteric modulator activity at P-glycoprotein mediated Rhodamine-123 efflux in human KBV cells assessed as increase in intracellular Rhodamine-123 accumulation incubated for 2 hrs in presence of Ptx-C by flow cytometry analysis. The data set is classed as cell-based. A general note: A flow cytometer gives signals particle by particle.
T1 sequence (P08183 whole entry): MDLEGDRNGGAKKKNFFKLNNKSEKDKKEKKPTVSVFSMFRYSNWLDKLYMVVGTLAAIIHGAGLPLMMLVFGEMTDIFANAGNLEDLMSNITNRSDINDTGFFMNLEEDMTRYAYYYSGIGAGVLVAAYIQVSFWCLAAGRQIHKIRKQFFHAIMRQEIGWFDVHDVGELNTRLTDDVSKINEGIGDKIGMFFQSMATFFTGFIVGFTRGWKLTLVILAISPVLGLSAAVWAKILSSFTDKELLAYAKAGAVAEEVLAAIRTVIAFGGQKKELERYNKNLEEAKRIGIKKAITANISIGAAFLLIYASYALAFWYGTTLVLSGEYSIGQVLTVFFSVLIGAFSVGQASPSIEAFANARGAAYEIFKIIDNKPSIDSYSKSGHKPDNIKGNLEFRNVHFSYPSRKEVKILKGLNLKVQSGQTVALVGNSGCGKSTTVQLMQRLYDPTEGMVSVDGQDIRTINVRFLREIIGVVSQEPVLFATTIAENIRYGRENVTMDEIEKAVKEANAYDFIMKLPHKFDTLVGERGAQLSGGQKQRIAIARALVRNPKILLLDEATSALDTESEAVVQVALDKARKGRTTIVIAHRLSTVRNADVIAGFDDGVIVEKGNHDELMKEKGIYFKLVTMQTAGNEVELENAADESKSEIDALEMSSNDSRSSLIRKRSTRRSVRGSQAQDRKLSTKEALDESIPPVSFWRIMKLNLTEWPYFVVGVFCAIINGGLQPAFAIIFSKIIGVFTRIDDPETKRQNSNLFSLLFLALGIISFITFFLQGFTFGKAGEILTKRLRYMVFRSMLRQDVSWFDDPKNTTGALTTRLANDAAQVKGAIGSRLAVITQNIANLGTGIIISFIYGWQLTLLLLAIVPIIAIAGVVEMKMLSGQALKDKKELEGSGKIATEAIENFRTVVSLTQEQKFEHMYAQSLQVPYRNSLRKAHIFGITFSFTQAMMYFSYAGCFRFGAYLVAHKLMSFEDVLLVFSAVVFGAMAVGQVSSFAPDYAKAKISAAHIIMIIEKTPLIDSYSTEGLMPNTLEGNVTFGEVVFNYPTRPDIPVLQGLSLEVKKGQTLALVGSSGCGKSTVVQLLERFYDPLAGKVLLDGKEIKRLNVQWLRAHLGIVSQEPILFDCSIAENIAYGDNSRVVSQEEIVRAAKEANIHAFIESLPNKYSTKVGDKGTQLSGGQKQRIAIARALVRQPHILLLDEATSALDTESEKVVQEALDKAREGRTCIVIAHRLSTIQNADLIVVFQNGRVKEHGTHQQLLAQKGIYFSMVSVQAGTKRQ

Data set [2] is described as follows: Induction of Ptx-mediated cell cycle arrest in human KBV cells assessed as accumulation of cells at G1-G0 phase at 5 uM incubated for 24 hrs in presence of paclitaxel by flow cytometry analysis (Rvb =57.76 +/- 0.78%). The data set is classed as functional.
Data set [3] in a line: Cytotoxicity against human KBV Cells assessed as cell survival rate at 10 uM incubated for 72 hrs by MTT assay. The data set is classed as functional. The following applies: read-out: Survival. Background: Formazan colour is commonly taken as a measure of viable cells.
The target of data set [4] is T1, ATP-dependent translocase ABCB1. The data set is described as follows: Negative allosteric modulator activity at human P-gp ATP synthase hydrolytic activity assessed as inhibition of basal Pgp-ATPase activity at 1 mM incubated for 60 mins in presence of ATP by Glo-luminescence based microplate reader assay. The following applies: 1 h, 1000 µM.
Data set [5] concerns the target T2, P-gp (ABCB1) ATPase (Homo sapiens, UniProt P08183). As to the kind of experiment: Negative allosteric modulator activity at human P-gp ATP synthase hydrolytic activity assessed as inhibition of Vrp-stimulated Pgp-ATPase activity at 25 uM incubated for 60 mins in presence of ATP by Glo-luminescence based microplate reader assay relative to DMSO. The following applies: probe Vrp (stimulator of the ATPase activity).

The nature of data set [6]: Induction of cell cycle arrest in human KBV cells assessed as accumulation of cells at G1-G0 phase at 10 uM incubated for 24 hrs by flow cytometry analysis (reference value: 62.34 +/- 0.24%). Format: functional.
Data set [7] is described as follows: Toxicity against BALB/c mouse xenografted with Ptx-resistance human KBV cells at 20 mg/kg,ip measured after 23 days. The data set is classed as organism-based. The conditions noted are these: in vivo, 552 h, time 23 day.
A short description of data set [8]: Induction of cell cycle arrest in human KBV cells assessed as accumulation of cells at S phase at 5 uM incubated for 24 hrs by flow cytometry analysis (reference value: 12.42 +/- 0.41%). The data set is classed as functional.
Data set [9] addresses T2, P-gp (ABCB1) ATPase. The data set is described as follows: Negative allosteric modulator activity at human P-gp ATP synthase hydrolytic activity assessed as inhibition of basal Pgp-ATPase activity at 25 uM incubated for 60 mins in presence of ATP by Glo-luminescence based microplate reader assay relative to DMSO.

T2 sequence (P08183 whole entry): as above

Turning to `CC(C)(O)[C@H]1CC[C@@](C)([C@H]2CC[C@]3(C)[C@@H]2[C@H](O)C[C@@H]2[C@@]4(C)CC[C@H](NC(=O)[C@@H]5CCCN5)C(C)(C)[C@@H]4CC[C@]23C)O1`, the Activity entry in data set [1] was “Dose-Dependent Effect”; in [2], 45.93%; in [6] it was 60.47%; in [7], “Non-Toxic”; in data set [8] it was 13.38%. For the same compound, in data set [3], the viability at 10 µM was determined as 123%. In addition, the “inhibition (INH)” value in data set [4] was “Not Active”. The inhibition (commonly the percentage by which the read-out fell short of the control) at 1 h, 25 µM stood at 60% in [5] and 87% in data set [9].
